Experimental data from paper PMC8535469, “Insight into the Binding and Hydrolytic Preferences of hNudt16 Based on Nucleotide Diphosphate Substrates” (International Journal of Molecular Sciences, 2021).
Like-named read-outs stand apart in the source and are kept apart here.

Tests used:
hNudt16E76Q [1] = target: T1, hNudt16E76Q (Homo sapiens, UniProt Q96DE0, E76Q); test: Thermal stability of hNudt16E76Q with ligands, dye-free nanoDSF; type: binding; conditions: for Tm, nanoDSF (Dye-Free) / ∆Tm, nanoDSF (Dye-Free): 5 µM hNudt16E76Q, 20 mM MgCl2, 0.5 mM ligand; for ∆Tm, nanoDSF (Dye-Free): relative to apo
T1 construct: 4xHis (four added histidines); made in house; host or cells: E. coli Rosetta 2 (DE3), pET16b
T1 sequence (Q96DE0 whole entry E76Q): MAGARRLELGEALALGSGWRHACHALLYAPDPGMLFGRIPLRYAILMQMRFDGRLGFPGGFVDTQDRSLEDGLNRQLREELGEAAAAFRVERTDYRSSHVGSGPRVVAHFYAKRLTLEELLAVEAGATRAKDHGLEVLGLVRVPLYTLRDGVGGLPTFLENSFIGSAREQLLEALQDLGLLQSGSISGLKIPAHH
Experimental: (§1) Protein thermal stability in the presence of various ligands was measured using two DSF methods: assays with SYPRO orange dye and dye-free assays. DSF assays with SYPRO orange dye were performed at specific ligand concentrations for each protein–ligand pair. This measurement was performed as described in Section 4.6.1, with a constant MgCl2 concentration of 20 mM and a concentration of the tested ligand maintained at 0.5 mM. DSF dye-free measurements were performed using a Prometheus NT.48 nanoDSF device (NanoTemper Technologies, München, Germany). The composition of the samples was identical to that in the DSF with SYPRO orange dye measurements, without the addition of any dye. […] The measurements were performed at a single ligand concentration for all ligands. After 10 min of pre-incubation, the samples were loaded into standard capillaries (NanoTemper Technologies, München, Germany). […] We fitted the melting temperatures (Tm) globally for at least three independent experiments (but separately for different DSF methods).

hNudt16E76Q [2] = target: T1, hNudt16E76Q; test: Thermal stability of hNudt16E76Q with ligands, DSF with SYPRO Orange; type: binding; conditions: 5 µM hNudt16E76Q, 20 mM MgCl2, 0.5 mM ligand, 4× SYPRO Orange; for ∆Tm, DSF (with SYPRO Orange): relative to apo
Experimental: The protein thermal stability of wild-type hNudt16 and all tested mutants in the presence of increasing Mg^2+ ion concentration was measured using DSF with SYPRO orange dye on CFX RT-PCR (Bio-Rad, Hercules, CA, USA). This method is based on the change in fluorescence of the SYPRO orange dye in an aqueous buffer, which is strongly quenched, while its binding to the exposed hydrophobic regions of thermally unfolded protein results in an increased fluorescence. The optimal concentrations of protein, SYPRO orange dye, and buffer composition, in particular ion content, were determined. The samples were prepared and measured in clear 96-well multiplate PCR plates for RT-PCR (Bio-Rad, Hercules, CA, USA). […] The individual components of the solution were added in equal volumes to each well, with a final sample volume of 25 μL/well. The samples were gently mixed, and the 96-well plate was covered with optically clear PCR sealing tape (Bio-Rad, Hercules, CA, USA) to prevent evaporation. […] The data processing procedure was performed using Bio-Rad CFX Manager (version 1.6.541.1028), and melting point temperatures were calculated as the minimum of the first derivative plot.
as §1

hNudt16E76Q [3] = target: T1, hNudt16E76Q; test: Microscale thermophoresis (MST) binding, two independent binding sites model; conditions: for ΔGdiss1 (for Kd1): calculated as −RTlnKd from MST Kd1; for ΔGdiss2 (for Kd2): calculated as −RTlnKd from MST Kd2
Experimental: Binding constants for protein–ligand pairs were established using the MST method. The hNudt16 E76Q was labeled with RED-tris-NTA 2nd Generation dye (Monolith HIS-tag labeling Kit, NanoTemper Technologies, München, Germany) according to the manufacturer’s instructions. Measurements were carried out in a wide range of ligand concentrations, selected after preliminary tests for each of the ligands. The results obtained were used to determine of binding parameters for a given ligand. Each MST measurement consisted of a series of 16 serial 1:2 dilutions of the ligand, and was performed at a constant dye-labeled protein concentration of 50 nM. After 10 min of pre-incubation, dye-labeled protein–ligand samples were manually loaded into Monolith™ NT.115 Premium Capillaries (NanoTemper Technologies, München, Germany) and analyzed using the Monolith NT.115 (NanoTemper Technologies). […] Analysis was performed using Origin package (OriginLab, Northampton, MA, USA) and dissociation constants were fitted globally for a series of at least six MST pseudo-titration experiments for each ligand. Up to 10 replicates were performed for some ligands.
For the dissociation constants obtained, we also calculated the free energy associated with the dissociation of the complex ΔGdiss according to the equation: ΔGdiss=−RTlnKd.

hNudt16E76Q [4] = target: T1, hNudt16E76Q; test: Hydrolytic properties of E76Q mutant tested by HPLC; type: biochemical
Experimental: (§2) The hydrolytic susceptibility of the compounds was studied using HPLC. Before each experiment, 1 mL of buffer solution containing the analyte was incubated at 37 °C for 10 min. The hydrolysis process was initiated by the addition of hNudt16. To analyze the reaction progress, 200-µL aliquots of the reaction mixture were withdrawn and incubated at 96 °C for 5 min to stop the reaction through heat inactivation of the enzyme. The samples were then subjected to an HPLC system (Agilent 1200 series, Agilent Technologies, California, USA) with a reverse-phase Supelcosil LC-18-T column and UV/VIS detector. The substrates and hydrolysis products were eluted at 20 °C with a linear gradient of methanol in 0.1 M KH2PO4 (from 0% to 40%) over 15 min at a flow rate of 1.0 mL/min. Changes in the absorbance at 260 nm were continuously monitored during the analysis. Hydrolysis products were identified by comparing their retention times with those of the reference samples. The extent of decapping, determined as the percentage of the hydrolyzed substrate, was calculated using the area under the chromatographic peak of the respective compounds.

hNudt16 [5] = target: T2, hNudt16 (Homo sapiens, UniProt Q96DE0); test: Enzymatic hydrolysis catalyzed by hNudt16, products quantified by HPLC; type: biochemical; design: 4xHis (four added histidines); made in house; conditions: 20 µM substrate, 37 °C; for Hydrolysis Products / Hydrolysis Rate, v/[E]0 (hydrolyzed substrate per minute per [enzyme] µM) / Hydrolysis Rate, v/µg (hydrolyzed substrate per minute per enzyme µg): pH 7.9, 6 mM MgCl2, nd = hydrolysis products not detected
T2 sequence (Q96DE0 whole entry): as the sequence (Q96DE0 whole entry E76Q) above, with Q76E counted along it
Experimental: Enzymatic hydrolysis catalyzed by hNudt16 was performed at 37 °C in 40 mM Tris buffer (pH 7.9) containing 100 mM NaCl, 6 mM MgCl2, and 2 mM DTT. The concentration of the investigated dinucleotides and mononucleotides was 20 µM in the reaction mixture.
as §2

hNudt16 EE-QQ = target: T3, hNudt16 EE-QQ (Homo sapiens, UniProt Q96DE0, E79Q/E80Q); test: Hydrolytic properties of EE-QQ mutant tested by HPLC; type: biochemical
T3 construct: 4xHis (four added histidines); made in house; host or cells: E. coli Rosetta 2 (DE3), pET16b
T3 sequence (Q96DE0 whole entry E79Q/E80Q): as the sequence (Q96DE0 whole entry E76Q) above, with Q76E, E79Q, E80Q counted along it
Experimental: as §2

hNudt16 EE-KK = target: T4, hNudt16 EE-KK (Homo sapiens, UniProt Q96DE0, E79K/E80K); test: Hydrolytic properties of EE-KK mutant tested by HPLC; type: biochemical
T4 construct: 4xHis (four added histidines); made in house; host or cells: E. coli Rosetta 2 (DE3), pET16b
T4 sequence (Q96DE0 whole entry E79K/E80K): as the sequence (Q96DE0 whole entry E76Q) above, with Q76E, E79K, E80K counted along it
Experimental: as §2

wild-type hNudt16 = target: T5, wild-type hNudt16 (Homo sapiens, UniProt Q96DE0); test: Thermal stability of wild-type hNudt16 with ligands, nanoDSF; type: binding; conditions: 20 mM MgCl2, same conditions as E76Q
T5 construct: 4xHis (four added histidines); made in house
T5 sequence (Q96DE0 whole entry): as the sequence (Q96DE0 whole entry E76Q) above, with Q76E counted along it
Experimental: This allow us to conclude that there is no negative effect of the mutation on protein stabilization by studied compounds.
Protein thermal stability in the presence of various ligands was measured using two DSF methods: assays with SYPRO orange dye and dye-free assays. DSF assays with SYPRO orange dye were performed at specific ligand concentrations for each protein–ligand pair. This measurement was performed as described in Section 4.6.1, with a constant MgCl2 concentration of 20 mM and a concentration of the tested ligand maintained at 0.5 mM. DSF dye-free measurements were performed using a Prometheus NT.48 nanoDSF device (NanoTemper Technologies, München, Germany). The composition of the samples was identical to that in the DSF with SYPRO orange dye measurements, without the addition of any dye. The conditions during measurements were as follows: 5 µM protein, 20 mM MgCl2, 10 mM HEPES pH 7.9, 150 mM NaCl, 5% glycerol, 1 mM TCEP, and 0.5 mM ligand. The measurements were performed at a single ligand concentration for all ligands. After 10 min of pre-incubation, the samples were loaded into standard capillaries (NanoTemper Technologies, München, Germany). During the measurement, the samples were heated in a temperature range of 20–95 °C at a rate of 1 °C/min, and the measurements were performed with an excitation power of 30%. All of the collected data measured with using the above two DSF methods were analyzed according to the two-state transition numerical model described previously, using the Marquardt algorithm implemented in the Origin 2019 package (OriginLab, Northampton, MA, USA). We fitted the melting temperatures (Tm) globally for at least three independent experiments (but separately for different DSF methods).

hNudt16 [6] = target: T2, hNudt16; conditions: cited from earlier work
[7] = second, weaker binding site, read-out: Kd2
[8] = stronger binding site, 50 nM dye-labeled protein, read-out: Kd1

| Compound | Tm, nanoDSF (Dye-Free) (hNudt16E76Q [1]) | ∆Tm, nanoDSF (Dye-Free) (hNudt16E76Q [1]) | Tm, DSF (with SYPRO Orange) (hNudt16E76Q [2]) | ∆Tm, DSF (with SYPRO Orange) (hNudt16E76Q [2]) | ΔGdiss1 (for Kd1) (hNudt16E76Q [3]) | ΔGdiss2 (for Kd2) (hNudt16E76Q [3]) | Kd (hNudt16E76Q [3]; [7]) | Kd (hNudt16E76Q [3]; [8]) | Hydrolytic activity of E76Q mutant (hNudt16E76Q [4]) | Hydrolysis Products (hNudt16 [5]) | Hydrolysis Rate, v/[E]0 (hydrolyzed substrate per minute per [enzyme] µM) (hNudt16 [5]) | Hydrolysis Rate, v/µg (hydrolyzed substrate per minute per enzyme µg) (hNudt16 [5]) | ΔTm relative to the apo form, both DSF and nanoDSF (hNudt16E76Q [1]; 0.5 mM ligand, stated for both types of measurements) | Hydrolytic activity of EE-QQ mutant (hNudt16 EE-QQ) | Hydrolytic activity of EE-KK mutant (hNudt16 EE-KK) | Tm, wild-type hNudt16, nanoDSF (wild-type hNudt16) | ΔTm, wild-type hNudt16, nanoDSF (wild-type hNudt16) | Km (hNudt16 [6]) | Susceptibility to hydrolysis by hNudt16 (in words) (hNudt16 [5]; HPLC) |
| --- | --- | --- | --- | --- | --- | --- | --- | --- | --- | --- | --- | --- | --- | --- | --- | --- | --- | --- | --- |
| C[n+]1cn([C@@H]2O[C@H](COP(=O)([O-])OP(=O)(O)OC[C@H]3O[C@@H](n4cnc5c(=O)[nH]c(N)nc54)[C@H](O)[C@@H]3O)[C@@H](O)[C@H]2O)c2nc(N)[nH]c(=O)c21 [m^7GppG] | 80.2 ± 0.1 °C | 15.2 ± 0.1 °C | 78.2 ± 0.1 °C | 14.4 ± 0.1 °C | 9.063 kcal/mol | 6.154 kcal/mol | 30200 ± 2500 nM | 220 ± 87 nM | none of the mutants exhibited hydrolytic activity | m^7GMP + GMP | 722.6 ± 68.6 µM/min/[E]0 | 30.11 ± 2.81 µM/min/µg | – | – | – | – | – | – | – |
| Nc1nc2c(ncn2[C@@H]2O[C@H](COP(=O)(O)OP(=O)(O)OC[C@H]3O[C@@H](n4cnc5c(=O)[nH]c(N)nc54)[C@H](O)[C@@H]3O)[C@@H](O)[C@H]2O)c(=O)[nH]1 [GppG] | 83.1 ± 0.1 °C | 18.0 ± 0.1 °C | 81.2 ± 0.1 °C | 17.5 ± 0.1 °C | 9.708 kcal/mol | 7.89 kcal/mol | 1600 ± 400 nM | 73 ± 23 nM | none of the mutants exhibited hydrolytic activity | GMP | 5454.5 ± 436.3 µM/min/[E]0 | 227.27 ± 18.25 µM/min/µg | 17.5–18.0 °C | none of the mutants exhibited hydrolytic activity | none of the mutants exhibited hydrolytic activity | – | – | – | – |
| Adenosine diphosphate ribose [ADPr] | 66.0 ± 0.1 °C | 0.9 ± 0.1 °C | 63.6 ± 0.1 °C | −0.1 ± 0.1 °C | – | ≤2.32 kcal/mol | – | – | – | – | – | – | – | – | – | 68.1 ± 0.1 °C | 0.9 ± 0.1 °C | ~1000 µM | resistant to hydrolytic cleavage |
| Nc1nc2c(ncn2[C@@H]2O[C@H](COP(=O)(O)O)[C@@H](O)[C@H]2O)c(=O)[nH]1 [GMP, Guanosine monophosphate] | 69.1 ± 0.1 °C | 4.0 ± 0.1 °C | 68.0 ± 0.1 °C | 4.3 ± 0.1 °C | – | – | – | – | – | – | – | – | – | – | – | 70.8 ± 0.1 °C | 3.5 ± 0.1 °C | – | – |
